In patent US20220177471A1, “N-1 BRANCHED ALKYL SUBSTITUTED IMIDAZO[4,5-C]QUINOLINE COMPOUNDS, COMPOSITIONS, AND METHODS” (3M INNOVATIVE PROPERTIES COMPANY, priority 2019, published 2022):
Like-named read-outs stand apart in the source and are kept apart here.

Test system: Human peripheral blood mononuclear cells (PBMC)
Assay: Cytokine induction in human cells (PBMC), cytokines by ELISA / multiplex bead assay
Format: cell-based
Details: for minimal effective concentration: human PBMC, 21-24 hours, lowest concentration giving cytokine level at least 2x negative control
Description: Whole blood was obtained from healthy human donors and collected by venipuncture into vacutainer tubes or syringes containing EDTA. Human peripheral blood mononuclear cells (PBMC) were purified from the whole blood by density gradient centrifugation. Histopaque 1077 (15 mL, Sigma, St. Louis, Mo.) was transferred to 6×50 mL sterile polypropylene conical tubes. The Histopaque was overlayed with 15-25 mL of blood diluted 1:2 in Hank's Balanced Salts Solution (HBSS) (Gibco, Life Technologies, Grand Island, N.Y.). The tubes were then centrifuged at 1370 revolutions per minute (rpm) for 30 minutes at 20° C., with no brake (400×g, GH 3.8 A Rotor).
The interface (buffy coat) containing the PBMC was collected and placed in a new sterile 50 mL conical polypropylene centrifuge tube. The PBMC were mixed with an equal volume of HBSS (about 20 mL from the interface and about 20 mL of HBSS), and then centrifuged at 1090 rpm, 10 minutes, 20° C., with brake (270×g, GH 3.8 A Rotor). After completing centrifugation, the cells were resuspended in 2-3 mL ACK Red blood cell lysis buffer (ammonium chloride potassium solution, Gibco, Life Technologies) and incubated for 2-5 minutes at 20° C. Next, HBSS (40 mL) was added to the cells, and the sample was centrifuged at 270×g for 10 minutes at 20° C. The supernatant was decanted, and the cell pellet was resuspended in 5 mL AIM V Medium (Gibco, Life Technologies). Cell aggregates and debris were removed by filtering the cell solution through a BD Falcon 70 micron nylon cell strainer (BD Biosciences, San Jose, Calif.).
The number of viable cells was determined by counting with a Miltenyi FACS instrument (Miltenyi Biotec Inc., San Diego, Calif.) or by using a hemacytometer. For determining cell viability with a hemacytometer, the cells were diluted 1/10 in 0.4% trypan blue and HBSS (specifically, 50 microliter of trypan blue+40 microliter of HBSS+10 microliter of cell solution were added to a microfuge tube and mixed). Ten microliters of the diluted cells were then applied to the hemacytometer, and the number of viable PBMC were determined by microscopy.
The PBMC sample was then resuspended in 96-well plates at a concentration of 8×10^5 cells/well in 0.1 mL of AIM-V medium. Each compound was solubilized in dimethyl sulfoxide (DMSO) to create a 3 mM stock solution. The stock solution was then further diluted with AIM-V medium to prepare the serial dilutions. The diluted compound (100 microliters) was then transferred to the PBMCs to produce testing sets with final compound concentrations of either 30, 10, 3.3, 1.1, 0.37, 0.12, 0.04, 0.01 micromolar (testing set A); 100, 30, 10, 3.3, 1.1, 0.37, 0.12, 0.04, 0.01, 0.005 micromolar (testing set B); 100, 33.3, 11.1, 3.7, 1.2, 0.41 micromolar (testing set C); or 100, 50, 30, 10, 3.3, 1.1, 0.37, 0.12, 0.04 micromolar (testing set D). The plates also had both positive and negative controls. The negative control wells contained only AIM-V medium with no example compound. The positive control wells contained a control set of imiquimod serially diluted to concentrations of either 30, 10, 3.3, 1.1, 0.37, 0.12, 0.04, 0.01 micromolar (control set A); 100, 30, 10, 3.3, 1.1, 0.37, 0.12, 0.04, 0.01, 0.005 micromolar (control set B); 100, 33.3, 11.1, 3.7, 1.2, 0.41 micromolar (control set C); or 100, 50, 30, 10, 3.3, 1.1, 0.37, 0.12, 0.04 micromolar (control set D). The concentrations used in the control set were selected to match the concentrations used in the testing set. The plates were then cultured at 37° C./5% CO2 for 21-24 hours. Cell-free supernatants were harvested by centrifuging the 96-well plates at 2100 rpm, 23° C. for 10 minutes. Approximately 160 microliters of the supernatant was then stored in a NUNC 96-well plate, covered with the compression cap and stored at −80° C. until the cytokine analysis was done.
IFN-alpha cytokine levels (picograms/mL) were measured by ELISA (human IFN-alpha, pan specific, Mabtech, Cincinnati, Ohio). […]

In the case of C[C@H](n1cnc2c(N)nc3ccccc3c21)C(C)(C)F [Example 21, 1-[(1S)-2-fluoro-1,2-dimethyl-propyl]imidazo[4,5-c]quinolin-4-amine], the “cytokine production (statement in words)” value (IFN-alpha, IFN-gamma, TNF-alpha) is reported as “inactive toward cytokine production”, the minimal effective concentration (ELISA, read-out: MEC to Induce Cytokine: IFN-alpha) is reported as greater than 100 µM and the minimal effective concentration (multiplex bead assay, read-out: MEC to Induce Cytokine: IFN-gamma) is reported as greater than 100 µM. For the same compound, the minimal effective concentration (multiplex bead assay, read-out: MEC to Induce Cytokine: TNF-alpha) was greater than 100 µM.
